From US20060019907A1, “Guggulsterone: an inhibitor of nuclear factor - kappaB and IkappaBalpha kinase activation and uses thereof” (Research Development Foundation, priority 2004, published 2006)

How the values were obtained:
[1] = test system: NF-κB; test: Constitutively active NF-κB by EMSA in U266 and MDA 1986 tumor cells; type: cell-based, human; conditions: 50 μM, 4 hours
Method: (§1) NF-κB Activation: To determine NF-κB activation, EMSA was carried out as previously described (Chaturvedi et al., 2000). Briefly, nuclear extracts prepared from cells (2×10^6/ml) treated with TNF were incubated with ^32P-end-labeled 45-mer double-stranded NF-κB oligonucleotide (8 μg of protein with […] of DNA) from the human immunodeficiency virus long terminal repeat, 5′-[…] GGCGTGG-3′ (SEQ ID NO:1) (boldface indicates NF-κB binding sites), for 15 min at 37° C. The DNA-protein complex formed was separated from free oligonucleotide on 6.6% native polyacrylamide gels. A double-stranded mutated oligonucleotide, 5′-[…]-3′ (SEQ ID NO:2), was used to examine the specificity of binding of NF-κB to the DNA. The specificity of binding was also examined by competition with the unlabeled oligonucleotide. For supershift assays, nuclear extracts prepared from TNF-treated cells were incubated with antibodies against either the p50 or the p65 subunit of NF-κB for 30 min at room temperature before the complex was analyzed by EMSA. The dried gels were visualized, and radioactive bands were quantitated using a PHOSPHORIMAGER™ (Molecular Dynamics, Sunnyvale, Calif.) using IMAGEQUANT™ software.

[2] = test system: NF-κB; test: NF-κB activation by EMSA in H1299 cells; type: cell-based, human
Method: as §1

[3] = test system: MKK4 mutants and wild type cells; test: Cytotoxicity (MTT uptake) in MKK4 mutants and wild type cells; type: cell-based; conditions: 72 h
Method: Cytotoxicity assay. The cytotoxic effects of guggulsterone was determined by the MTT uptake method. Briefly, 5000 cells were incubated with guggulsterone in triplicate in a 96-well plate at 37° C. MTT solution was then added to each well. After a 2-h incubation at 37° C., extraction buffer (20% SDS, 50% dimethylformamide) was added, the cells were incubated overnight at 37° C., and the OD was then measured at 570 nm using a 96-well multiscanner (Dynex Technologies, MRX Revelation, Chantilly, Va.).

[4] = biological target: farnesoid X receptor (FXR) (Homo sapiens, UniProt Q96RI1); conditions: cited from earlier work
[5] = H1299, 4 h pre-incubation, 0.1 nM TNF 30 min

Sequence of farnesoid X receptor (FXR) (Q96RI1 whole entry, species assumed): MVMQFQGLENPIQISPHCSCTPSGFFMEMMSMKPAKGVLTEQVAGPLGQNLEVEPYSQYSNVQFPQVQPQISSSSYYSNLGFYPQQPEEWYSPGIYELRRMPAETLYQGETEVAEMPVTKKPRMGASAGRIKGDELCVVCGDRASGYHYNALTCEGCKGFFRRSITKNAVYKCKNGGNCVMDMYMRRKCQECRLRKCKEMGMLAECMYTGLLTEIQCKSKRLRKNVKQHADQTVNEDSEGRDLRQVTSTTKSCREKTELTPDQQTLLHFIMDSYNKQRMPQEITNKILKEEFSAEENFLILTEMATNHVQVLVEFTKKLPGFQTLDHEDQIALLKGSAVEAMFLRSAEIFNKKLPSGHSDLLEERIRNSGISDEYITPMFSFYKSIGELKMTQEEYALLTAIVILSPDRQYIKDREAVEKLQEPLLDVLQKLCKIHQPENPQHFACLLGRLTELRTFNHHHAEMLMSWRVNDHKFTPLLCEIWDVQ

CC=C1C(=O)C[C@H]2[C@@H]3CCC4=CC(=O)CC[C@]4(C)[C@H]3CC[C@]12C [guggulsterone, 4,17(20)-pregnadiene-3,16-dione]
constitutively active NF-κB in U266 and MDA 1986 cells [1]: completely inhibited this constitutively active NF-κB
minimum time required for complete inhibition of NF-κB activation ([2]; H1299, 50 μM guggulsterone, 0.1 nM TNF 30 min): 4 h
TNF-mediated NF-κB activation, dose dependence [2, 5]: inhibited TNF-mediated NF-κB activation in a dose-dependent manner
concentration of maximum inhibition of TNF-mediated NF-κB activation [2, 5]: 50 µM
NF-κB activation induced by TNF, IL-1β, PMA, H2O2, cigarette smoke and okadaic acid (EMSA) ([2]; H1299 cells, 50 μM guggulsterone pre-incubated 4 h): suppressed the NF-κB activation induced by all these agents
NF-κB activation by guggulsterone by itself ([2]; H1299 nuclear extracts, up to 50 μM): by itself did not activate NF-κB
guggulsterone induced cytotoxicity, dependence on MKK4 [3]: MKK4 is required for guggulsterone induced cytotoxicity
action on bile acid receptor farnesoid X receptor (FXR) ([4]; Urizar et al., 2002, Wu et al.): antagonist
expression of bile acid-activated genes ([4]; Urizar et al., 2002, Cui et al., 2003): decrease the expression of bile acid-activated genes
